Source: patent publication US12084419B2, “Cell metabolism modulating compounds and uses thereof” (CRESCENTA BIOSCIENCES, priority 2020, dated 2024)

Biological target: T1, His6 tagged human recombinant FABP4 (Homo sapiens, UniProt P15090)
T1 construct: purchased Cayman Chemicals 10009549
Test: FABP4 TR-FRET assay: displacement of BODIPY FL C12 fatty acid
Details: triplicates, inhibition of BODIPY FL C12 binding; for inhibition at 1 µM: 1 μM compound; for inhibition at 10 µM: 10 μM compound
Excerpt: Activity of compounds with FABP4 was profiled using a Terbium (Tb) based time resolved fluorescence energy transfer (TR-FRET) assay. The assay measures the compound mediated displacement of the fluorescent fatty acid BODIPY FL C12 (Thermo Fisher; catalog number D3822) from His6 tagged human recombinant FABP4 (His6-FABP4; Cayman Chemicals, catalog number 10009549) via recording the energy transfer from TB donor molecule on anti-His6-tag antibody to acceptor BODIPY moiety. Briefly, compounds were prepared at a concentration of 0.362 mM and 0.0362 mM, and BODIPY FL C12 was prepared at 4.2 μM, in DMSO. 1.2 μL of each compound or DMSO (vehicle control) and 1.2 μL of BODIPY FL C12 were added into the wells of a 384-well black polypropylene plate. His6-FABP4 and Tb anti-His6 antibody were prepared in the assay buffer (25 mM Tris/HCl, pH 7.4, 0.4 mg/ml y-globulins, 0.010% NP-40, 1 mM DTT) at a concentration of 83 nM and 49.6 nM, respectively. The protein and antibody solutions were then mixed at a ratio of 34:7 (v/v) and incubated on ice for 30 minutes. The assay was initiated by adding 41 μL of the resulting protein/antibody solution into the wells containing the compounds and BODIPY FL C12. The plate was centrifuged and incubated at room temperature for 10 min. The TR-FRET signals were recorded using an EnVision Multilabel plate reader (PerkinElmer; TB excitation 320 nm, BODIPY FL C12 emission 520 nm; TB emission 615 nm). Relative fluorescence ratio (520 nm*10,000/615 nm) were used to calculate the compound mediated inhibition of BODIPY C12 FL fatty acid binding to FABP4. […] Glucose consumption and FABP4 inhibition is shown below in Table 3 below.

T1 sequence (P15090 whole entry): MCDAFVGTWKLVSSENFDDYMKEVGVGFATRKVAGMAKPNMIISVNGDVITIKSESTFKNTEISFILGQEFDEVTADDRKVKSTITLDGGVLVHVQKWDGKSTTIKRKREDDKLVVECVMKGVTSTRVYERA

SMILES | inhibition at 1 µM | inhibition at 10 µM
CCCCC1CCCc2c1n(Cc1cccc(C(N)=O)c1)c1c(C(=O)O)cccc21 (centres unmarked) [1-butyl-9-[(3-carbamoylphenyl)methyl]-2,3,4,9-tetrahydro-1H-carbazole-8-carboxylic acid] | 83% | 86.2%
CCCCC1CCCc2c1n(Cc1cccc(C#N)c1)c1c(C(=O)O)cccc21 (centres unmarked) [1-butyl-9-[(3-cyanophenyl)methyl]-2,3,4,9-tetrahydro-1H-carbazole-8-carboxylic acid] | 58% | 93.7%
CCCCC1CCCc2c(n(Cc3cccc(C(N)=O)c3)c3c(C(=O)NCC(=O)O)cccc23)C1 (centres unmarked) [2-({7-butyl-5-[(3-carbamoylphenyl)methyl]-5H,6H,7H,8H,9H,10H-cyclohepta[b]indol-4-yl}formamido)acetic acid] | 59% | 90.2%
CCCCC1CCCc2c(n(Cc3cccc(C#N)c3)c3c(C(=O)NCC(=O)O)cccc23)C1 (centres unmarked) [2-({7-butyl-5-[(3-cyanophenyl)methyl]-5H,6H,7H,8H,9H,10H-cyclohepta[b]indol-4-yl}formamido)acetic acid] | 8.61% | 41%
CCCCC1Cc2c(n(Cc3cccc(C(N)=O)c3)c3c(C(=O)O)cccc23)C1 (centres unmarked) [2-butyl-4-[(3-carbamoylphenyl)methyl]-1H,2H,3H,4H-cyclopenta[b]indole-5-carboxylic acid] | 87.2% | 95.2%
CCCCC1Cc2c(n(Cc3cccc(C#N)c3)c3c(C(=O)O)cccc23)C1 (centres unmarked) [2-butyl-4-[(3-cyanophenyl)methyl]-1H,2H,3H,4H-cyclopenta[b]indole-5-carboxylic acid] | 62.1% | 85.1%
CCCCC1CCc2c(n(Cc3cccc(C(N)=O)c3)c3c(C(=O)O)cccc23)C1 (centres unmarked) [2-butyl-9-[(3-carbamoylphenyl)methyl]-2,3,4,9-tetrahydro-1H-carbazole-8-carboxylic acid] | 88.5% | 95.5%
CCCCCCC1CCc2c(n(Cc3ccnc(OC)c3)c3c(C(=O)O)cccc23)C1 (centres unmarked) [2-hexyl-9-[(2-methoxypyridin-4-yl)methyl]-2,3,4,9-tetrahydro-1H-carbazole-8-carboxylic acid] | 44.2% | 77.8%
CCCCCCC1CCc2c(n(Cc3ccccc3C)c3c(C(=O)O)cccc23)C1 (centres unmarked) [2-hexyl-9-[(2-methylphenyl)methyl]-2,3,4,9-tetrahydro-1H-carbazole-8-carboxylic acid] | 87.4% | 83.2%
CCCCCCC1CCc2c(n(Cc3cccc(O)c3)c3c(C(=O)O)cccc23)C1 (centres unmarked) [2-hexyl-9-[(3-hydroxyphenyl)methyl]-2,3,4,9-tetrahydro-1H-carbazole-8-carboxylic acid] | 77.9% | 93.1%
CCCCCCC1CCc2c(n(Cc3ccc(C)cc3)c3c(C(=O)O)cccc23)C1 (centres unmarked) [2-hexyl-9-[(4-methylphenyl)methyl]-2,3,4,9-tetrahydro-1H-carbazole-8-carboxylic acid] | 74.3% | 88.5%
CCCCC1CCc2c1n(Cc1cccc(C(N)=O)c1)c1c(C(=O)O)cccc21 (centres unmarked) [3-butyl-4-[(3-carbamoylphenyl)methyl]-1H,2H,3H,4H-cyclopenta[b]indole-5-carboxylic acid] | 96.8% | 98.5%
CCCCC1CCc2c1n(Cc1cccc(C#N)c1)c1c(C(=O)O)cccc21 (centres unmarked) [3-butyl-4-[(3-cyanophenyl)methyl]-1H,2H,3H,4H-cyclopenta[b]indole-5-carboxylic acid] | 85.1% | 98.5%
CCCCC1CCc2c(c3cccc(C(=O)O)c3n2Cc2cccc(C(N)=O)c2)C1 (centres unmarked) [3-butyl-9-[(3-carbamoylphenyl)methyl]-2,3,4,9-tetrahydro-1H-carbazole-8-carboxylic acid] | 92.4% | 97.2%
CCCCC1CCc2c(c3cccc(C(=O)O)c3n2Cc2cccc(C#N)c2)C1 (centres unmarked) [3-butyl-9-[(3-cyanophenyl)methyl]-2,3,4,9-tetrahydro-1H-carbazole-8-carboxylic acid] | 35.8% | 81.1%
CCCCCC1Cc2c(n(Cc3cccc(C(N)=O)c3)c3c(C(=O)O)cccc23)C1 (centres unmarked) [4-[(3-carbamoylphenyl)methyl]-2-pentyl-1H,2H,3H,4H-cyclopenta[b]indole-5-carboxylic acid] | 86.9% | 93.1%

SMILES | inhibition at 1 µM | inhibition at 10 µM
CCC1CCc2c1n(Cc1cccc(C(N)=O)c1)c1c(C(=O)O)cccc21 (centres unmarked) [4-[(3-carbamoylphenyl)methyl]-3-ethyl-1H,2H,3H,4H-cyclopenta[b]indole-5-carboxylic acid] | 87.3% | 102%
CCCC1CCc2c1n(Cc1cccc(C(N)=O)c1)c1c(C(=O)O)cccc21 (centres unmarked) [4-[(3-carbamoylphenyl)methyl]-3-propyl-1H,2H,3H,4H-cyclopenta[b]indole-5-carboxylic acid] | 89.1% | 95.3%
CCCCCC1Cc2c(n(Cc3cccc(C#N)c3)c3c(C(=O)O)cccc23)C1 (centres unmarked) [4-[(3-cyanophenyl)methyl]-2-pentyl-1H,2H,3H,4H-cyclopenta[b]indole-5-carboxylic acid] | 39.5% | 78.3%
CCC1CCc2c1n(Cc1cccc(C#N)c1)c1c(C(=O)O)cccc21 (centres unmarked) [4-[(3-cyanophenyl)methyl]-3-ethyl-1H,2H,3H,4H-cyclopenta[b]indole-5-carboxylic acid] | 54.8% | 86.2%
CCCC1CCc2c1n(Cc1cccc(C#N)c1)c1c(C(=O)O)cccc21 (centres unmarked) [4-[(3-cyanophenyl)methyl]-3-propyl-1H,2H,3H,4H-cyclopenta[b]indole-5-carboxylic acid] | 67.8% | 97.6%
CCCCC1CCCc2c1c1cccc(C(=O)O)c1n2Cc1cccc(C(N)=O)c1 (centres unmarked) [4-butyl-9-[(3-carbamoylphenyl)methyl]-2,3,4,9-tetrahydro-1H-carbazole-8-carboxylic acid] | 43.3% | 83.4%
CCCCC1CCCc2c1c1cccc(C(=O)O)c1n2Cc1cccc(C#N)c1 (centres unmarked) [4-butyl-9-[(3-cyanophenyl)methyl]-2,3,4,9-tetrahydro-1H-carbazole-8-carboxylic acid] | 25.3% | 65.5%
CCCCCCC1CCCc2c(n(C(=O)c3cccc(C#N)c3)c3c(C(=O)O)cccc23)C1 (centres unmarked) [5-(3-cyanobenzoyl)-7-hexyl-5H,6H,7H,8H,9H,10H-cyclohepta[b]indole-4-carboxylic acid] | 87.1% | 88.5%
CCCCCCC1CCCc2c(n(Cc3ccc4ocnc4c3)c3c(C(=O)O)cccc23)C1 (centres unmarked) [5-[(1,3-benzoxazol-5-yl)methyl]-7-hexyl-5H,6H,7H,8H,9H,10H-cyclohepta[b]indole-4-carboxylic acid] | – | 88.5%
CCCCCCC1CCCc2c(n(Cc3ccc4ncoc4c3)c3c(C(=O)O)cccc23)C1 (centres unmarked) [5-[(1,3-benzoxazol-6-yl)methyl]-7-hexyl-5H,6H,7H,8H,9H,10H-cyclohepta[b]indole-4-carboxylic acid] | 101% | 94.9%
CCCCCCC1CCCc2c(n(Cc3cccc4ncoc34)c3c(C(=O)O)cccc23)C1 (centres unmarked) [5-[(1,3-benzoxazol-7-yl)methyl]-7-hexyl-5H,6H,7H,8H,9H,10H-cyclohepta[b]indole-4-carboxylic acid] | 92% | 95.3%
CCCCCCC1CCCc2c(n(Cc3ccccc3C(N)=O)c3c(C(=O)O)cccc23)C1 (centres unmarked) [5-[(2-carbamoylphenyl)methyl]-7-hexyl-5H,6H,7H,8H,9H,10H-cyclohepta[b]indole-4-carboxylic acid] | 79.2% | 82%
CCCCCCC1CCCc2c(n(Cc3ccccc3C#N)c3c(C(=O)O)cccc23)C1 (centres unmarked) [5-[(2-cyanophenyl)methyl]-7-hexyl-5H,6H,7H,8H,9H,10H-cyclohepta[b]indole-4-carboxylic acid] | – | 88.6%
CCCCCCC1CCCc2c(n(Cc3ccccc3F)c3c(C(=O)O)cccc23)C1 (centres unmarked) [5-[(2-fluorophenyl)methyl]-7-hexyl-5H,6H,7H,8H,9H,10H-cyclohepta[b]indole-4-carboxylic acid] | 77.5% | 87.3%
CCCCCCC1CCCc2c(n(Cc3ccnc(F)c3)c3c(C(=O)O)cccc23)C1 (centres unmarked) [5-[(2-fluoropyridin-4-yl)methyl]-7-hexyl-5H,6H,7H,8H,9H,10H-cyclohepta[b]indole-4-carboxylic acid] | 92.8% | 90.4%
CCCCCCC1CCCc2c(n(Cc3c(C)noc3C)c3c(C(=O)O)cccc23)C1 (centres unmarked) [5-[(3,5-dimethyl-1,2-oxazol-4-yl)methyl]-7-hexyl-5H,6H,7H,8H,9H,10H-cyclohepta[b]indole-4-carboxylic acid] | 79.8% | 95.6%
